{"source": "ChEMBL document CHEMBL3509421", "about": "“FDA drug approval package for diclofenac acid (NDA 22-202 CP, Ref ID: 3374276)”", "key": {"[1]": {"assay": "clinical", "details": "both, human, plasma, po, 50 mg"}, "[2]": {"assay": "Mean AUC(0-infinity) of diclofenac potassium following oral dosing of Cataflam 50 mf tablet in healthy human", "type": "ADME, organism-based", "parameters": "dietary status Fed, dose 50 mg, dosed compound id 2.46815e+06, dosed compound name Diclofenac potassium, gender Mixed, regimen Single, route oral, study doses 50 mg, time infinity", "details": "both, plasma, 50 mg, read-out: AUC(0-infinity)"}, "[3]": {"assay": "Mean AUC (0-infinity) of diclofenac following single oral dosing of 50 mg diclofenac potassium softgel capsule in healthy human", "type": "ADME, organism-based", "parameters": "time infinity, dietary status Fed, dose 50 mg, dosed compound id 2.46815e+06, dosed compound name Diclofenac potassium, gender Mixed, regimen Single, route oral, study doses 25/50 mg", "details": "both, plasma, read-out: AUC (0-infinity)"}, "[4]": {"assay": "Mean maximum Tmax value of diclofenac potassium following oral dosing of Cataflam 50 mf tablet in healthy human", "type": "ADME, organism-based", "parameters": "dietary status Fasting, dose 50 mg, dosed compound id 2.46815e+06, dosed compound name Diclofenac potassium, gender Mixed, regimen Single, route oral, study doses 50 mg", "details": "both, plasma, 50 mg, read-out: Maximum Tmax"}, "[5]": {"assay": "clinical", "details": "both, human, plasma, po, 50 mg", "remark": "listed apart in the source"}, "[6]": {"assay": "Mean AUC (0-t) of diclofenac following single oral dosing of 50 mg diclofenac potassium softgel capsule in healthy human", "type": "ADME, organism-based", "parameters": "dietary status Fasting, dose 50 mg, dosed compound id 2.46815e+06, dosed compound name Diclofenac potassium, gender Mixed, regimen Single, route oral, study doses 25/50 mg", "details": "both, plasma"}, "[7]": {"assay": "clinical", "details": "both, human, plasma, po, 25 mg"}, "[8]": {"assay": "Mean AUC(0-t) of diclofenac following single oral dosing of 50 mg Cataflam in healthy human", "type": "ADME, organism-based", "parameters": "dietary status Fasting, dose 50 mg, dosed compound id 2.46815e+06, dosed compound name Diclofenac potassium, gender Mixed, regimen Single, route oral, study doses 50 mg", "details": "both, plasma"}, "[9]": {"assay": "clinical", "details": "both, human, plasma, po, 35 mg"}, "[10]": {"assay": "clinical", "details": "both, human, plasma, po, 25 mg", "remark": "listed apart in the source", "description": "(§4) Mean terminal elimination half-life of diclofenac following single oral dosing of 25 mg diclofenac potassium softgel capsule in healthy human"}, "[11]": {"assay": "Minimum tmax of diclofenac following single oral dosing of 18 mg Zorvolex capsule in healthy human", "type": "ADME, organism-based, Plasma", "parameters": "dietary status Fasting, dose 18 mg, dosed compound id 2.46815e+06, dosed compound name Diclofenac, gender Mixed, regimen Single, route oral", "details": "in vivo"}, "[12]": {"assay": "Geometric mean for AUC (0-t) of diclofenac following single oral dosing of 18 mg Zorvolex capsule in healthy human", "type": "ADME, organism-based", "parameters": "dietary status Fasting, dose 18 mg, dosed compound id 2.46815e+06, dosed compound name Diclofenac, gender Mixed, regimen Single, route oral", "details": "both, plasma"}, "[13]": {"assay": "(§1) Geometric mean for Cmax of diclofenac following single oral dosing of 35 mg Zorvolex capsule in healthy human", "type": "ADME, organism-based", "parameters": "dietary status Fasting, dose 35 mg, dosed compound id 2.46815e+06, dosed compound name Diclofenac, gender Mixed, regimen Single, route oral", "details": "both, plasma"}, "[14]": {"assay": "Mean AUC (0-infinity) value of diclofenac following single oral dosing of 50 mg Cataflam tablet in healthy human", "type": "ADME, organism-based", "parameters": "time infinity, dietary status Fasting, dose 50 mg, dosed compound id 2.46815e+06, dosed compound name Diclofenac potassium, gender Mixed, regimen Single, route oral", "details": "both, plasma, read-out: AUC (0-infinity)"}, "[15]": {"assay": "Mean AUC(0-t) of diclofenac following single oral dosing of 25 mg diclofenac potassium soft gelatin capsule in healthy human", "type": "ADME, organism-based", "parameters": "dietary status Fasting, dose 25 mg, dosed compound id 2.46815e+06, dosed compound name Diclofenac potassium, gender Mixed, regimen Single, route oral, study doses 25/50 mg", "details": "both, plasma"}, "[16]": {"assay": "clinical", "details": "both, human, plasma, po, 18 mg"}, "[17]": {"assay": "clinical", "details": "both, human, plasma, po, 25 mg", "remark": "listed apart in the source", "description": "as §4"}, "[18]": {"assay": "Mean Kel of diclofenac potassium following oral dosing of PRO-513 50 mg sachet in healthy human", "type": "ADME, organism-based", "parameters": "dietary status Fed, dose 50 mg, dosed compound id 2.46815e+06, dosed compound name Diclofenac potassium, gender Mixed, regimen Single, route oral, study doses 50 mg", "details": "both, plasma"}, "[19]": {"assay": "Mean median Tmax value of diclofenac potassium following oral dosing of PRO-513 50 mg sachet in healthy human", "type": "ADME, organism-based", "parameters": "dietary status Fasting, dose 50 mg, dosed compound id 2.46815e+06, dosed compound name Diclofenac potassium, gender Mixed, regimen Single, route oral, study doses 50 mg", "details": "both, plasma, read-out: Median Tmax"}, "[20]": {"assay": "(§2) Geometric mean for apparent terminal elimination rate constant of diclofenac following single oral dosing of 35 mg Zorvolex capsule in healthy human", "type": "ADME, organism-based, Plasma", "parameters": "dietary status Fed, dose 35 mg, dosed compound id 2.46815e+06, dosed compound name Diclofenac, gender Mixed, regimen Single, route oral", "details": "in vivo"}, "[21]": {"assay": "Mean maximum Tmax value of diclofenac potassium following oral dosing of PRO-513 50 mg sachet in healthy human", "type": "ADME, organism-based", "parameters": "dietary status Fed, dose 50 mg, dosed compound id 2.46815e+06, dosed compound name Diclofenac potassium, gender Mixed, regimen Single, route oral, study doses 50 mg", "details": "both, plasma, read-out: Maximum Tmax"}, "[22]": {"assay": "as §2", "type": "ADME, organism-based, Plasma", "parameters": "dietary status Fasting, dose 35 mg, dosed compound id 2.46815e+06, dosed compound name Diclofenac, gender Mixed, regimen Single, route oral", "details": "in vivo"}, "[23]": {"assay": "Mean AUC(0-infinity) of diclofenac following single oral dosing of 50 mg Cataflam in healthy human", "type": "ADME, organism-based", "parameters": "time infinity, dietary status Fasting, dose 50 mg, dosed compound id 2.46815e+06, dosed compound name Diclofenac potassium, gender Mixed, regimen Single, route oral, study doses 50 mg", "details": "both, plasma, read-out: AUC (0-infinity)"}, "[24]": {"assay": "Mean Cmax of diclofenac following single oral dosing of 50 mg diclofenac potassium softgel capsule in healthy human", "type": "ADME, organism-based", "parameters": "dietary status Fed, dose 50 mg, dosed compound id 2.46815e+06, dosed compound name Diclofenac potassium, gender Mixed, regimen Single, route oral, study doses 25/50 mg", "details": "both, plasma"}, "[25]": {"assay": "Geometric mean for apparent terminal elimination rate constant of diclofenac following single oral dosing of 50 mg Cataflam tablet in healthy human", "type": "ADME, organism-based, Plasma", "parameters": "dietary status Fasting, dose 50 mg, dosed compound id 2.46815e+06, dosed compound name Diclofenac potassium, gender Mixed, regimen Single, route oral", "details": "in vivo"}, "[26]": {"assay": "as §1", "type": "ADME, organism-based", "parameters": "dietary status Fed, dose 35 mg, dosed compound id 2.46815e+06, dosed compound name Diclofenac, gender Mixed, regimen Single, route oral", "details": "both, plasma"}, "[27]": {"assay": "clinical", "details": "both, human, plasma, po, 50 mg", "remark": "listed apart in the source"}, "[28]": {"assay": "Mean apparent terminal elimination rate constant value of diclofenac following single oral dosing of 18 mg Zorvolex capsule in healthy human", "type": "ADME, organism-based, Plasma", "parameters": "dietary status Fasting, dose 18 mg, dosed compound id 2.46815e+06, dosed compound name Diclofenac, gender Mixed, regimen Single, route oral", "details": "in vivo"}, "[29]": {"assay": "Mean apparent terminal elimination rate constant value of diclofenac following single oral dosing of 50 mg Cataflam tablet in healthy human", "type": "ADME, organism-based, Plasma", "parameters": "dietary status Fed, dose 50 mg, dosed compound id 2.46815e+06, dosed compound name Diclofenac potassium, gender Mixed, regimen Single, route oral", "details": "in vivo"}, "[30]": {"assay": "(§3) Median tmax of diclofenac following single oral dosing of 35 mg Zorvolex capsule in healthy human", "type": "ADME, organism-based", "parameters": "dietary status Fed, dose 35 mg, dosed compound id 2.46815e+06, dosed compound name Diclofenac, gender Mixed, regimen Single, route oral", "details": "both, plasma, read-out: Median Tmax"}, "[31]": {"assay": "as §3", "type": "ADME, organism-based", "parameters": "dietary status Fasting, dose 35 mg, dosed compound id 2.46815e+06, dosed compound name Diclofenac, gender Mixed, regimen Single, route oral", "details": "both, plasma, read-out: Median Tmax"}}}
{"smiles": "O=C(O)Cc1ccccc1Nc1c(Cl)cccc1Cl", "note": "[DICLOFENAC]", "values": [{"measurement": "half-life", "setting": "[1]", "value": 2.27, "unit": "h"}, {"measurement": "AUC(0-inf)", "setting": "[2]", "value": 1070, "unit": "ng·h/mL"}, {"measurement": "AUC(0-inf)", "setting": "[3]", "value": 1460, "unit": "ng·h/mL"}, {"measurement": "Tmax", "setting": "[4]", "value": 4, "unit": "h"}, {"measurement": "half-life", "setting": "[5]", "value": 1.35, "unit": "h"}, {"measurement": "AUC(0-t)", "setting": "[6]", "value": 1520, "unit": "ng·h/mL"}, {"measurement": "half-life", "setting": "[7]", "value": 1.35, "unit": "h"}, {"measurement": "AUC(0-t)", "setting": "[8]", "value": 1130, "unit": "ng·h/mL"}, {"measurement": "half-life", "setting": "[9]", "value": 2.1, "unit": "h"}, {"measurement": "half-life", "setting": "[10]", "value": 1.04, "unit": "h"}, {"measurement": "Minimum Tmax", "setting": "[11]", "value": 0.5, "unit": "h"}, {"measurement": "AUC(0-t)", "setting": "[12]", "value": 478, "unit": "ng·h/mL"}, {"measurement": "Cmax", "setting": "[13]", "value": 804, "unit": "ng/mL"}, {"measurement": "AUC(0-inf)", "setting": "[14]", "value": 1330, "unit": "ng·h/mL"}, {"measurement": "AUC(0-t)", "setting": "[15]", "value": 579, "unit": "ng·h/mL"}, {"measurement": "half-life", "setting": "[16]", "value": 1.87, "unit": "h"}, {"measurement": "half-life", "setting": "[17]", "value": 1.11, "unit": "h"}, {"measurement": "k el", "setting": "[18]", "value": 0.000108, "unit": "s⁻¹"}, {"measurement": "Tmax", "setting": "[19]", "value": 0.25, "unit": "h"}, {"measurement": "lambda-z", "setting": "[20]", "value": 0.333, "unit": "h⁻¹"}, {"measurement": "Tmax", "setting": "[21]", "value": 4, "unit": "h"}, {"measurement": "lambda-z", "setting": "[22]", "value": 0.34, "unit": "h⁻¹"}, {"measurement": "AUC(0-inf)", "setting": "[23]", "value": 1140, "unit": "ng·h/mL"}, {"measurement": "Cmax", "setting": "[24]", "value": 1150, "unit": "ng/mL"}, {"measurement": "lambda-z", "setting": "[25]", "value": 0.318, "unit": "h⁻¹"}, {"measurement": "Cmax", "setting": "[26]", "value": 321, "unit": "ng/mL"}, {"measurement": "half-life", "setting": "[27]", "value": 1.84, "unit": "h"}, {"measurement": "lambda-z", "setting": "[28]", "value": 0.399, "unit": "h⁻¹"}, {"measurement": "lambda-z", "setting": "[29]", "value": 0.332, "unit": "h⁻¹"}, {"measurement": "Tmax", "setting": "[30]", "value": 3.32, "unit": "h"}, {"measurement": "Tmax", "setting": "[31]", "value": 1, "unit": "h"}]}
